# Columns and labels:
# Assay in all cases: combination Emax (second highest fraction inhibited in the dose matrix, 72 h); higher = more inhibition; extreme values may be limits of the assay
# [1] = test system: LOU-NH91 (Squamous Cell Lung Carcinoma)
# Outline: (§1)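 Cell lines grown in DMEM/F12 or RPMI with 10% FBS were plated in 1536-well plates and held 24 hours at 37°C, 5% CO2 before 72 hours of exposure to two-drug dose matrices, with DMSO typically at 0.2%. CellTiter-Glo 2.0 luminescence gave viability, which was converted to inhibition. Vehicle wells were set to 0 and blank wells to 1. Combination Emax is the second-highest inhibition in the matrix, and Bliss excess is the observed combination effect minus the expected EA + EB − EA·EB, where EA and EB are the single-agent effects.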
# [2] = test system: NCI-H2347 (Lung Adenocarcinoma)
# Outline: as §1
# [3] = test system: KYSE-150 (Esophageal Squamous Cell Carcinoma)
# Outline: as §1
# EW-3 (Ewing's Sarcoma) = test system: EW-3 (Ewing's Sarcoma)
# Outline: as §1
# [4] = test system: TGBC11TKB (Gastric Carcinoma)
# Outline: as §1
# [5] = test system: NCI-H513 (Other Solid Carcinomas)
# Outline: as §1
# [6] = test system: DG-75 (Burkitt's Lymphoma)
# Outline: as §1
# NH-12 (Neuroblastoma) = test system: NH-12 (Neuroblastoma)
# Outline: as §1
# [7] = test system: NCI-H322M (Lung Adenocarcinoma)
# Outline: as §1
# [8] = test system: ASH-3 (Thyroid Gland Carcinoma)
# Outline: as §1
# [9] = test system: JHH-7 (Hepatocellular Carcinoma)
# Outline: as §1
# U-87-MG (Glioblastoma) = test system: U-87-MG (Glioblastoma)
# Outline: as §1
# [10] = test system: EMC-BAC-2 (Non-Small Cell Lung Carcinoma)
# Outline: as §1
# [11] = test system: HSC-2 (Oral Cavity Carcinoma)
# Outline: as §1
# [12] = test system: KU-19-19 (Bladder Carcinoma)
# Outline: as §1
# [13] = test system: HC-1 (Other Blood Carcinomas)
# Outline: as §1
# [14] = test system: NCI-N87 (Gastric Carcinoma)
# Outline: as §1
# [15] = test system: LC4-1 (B-Lymphoblastic Leukemia)
# Outline: as §1
# [16] = test system: NCI-H1573 (Lung Adenocarcinoma)
# Outline: as §1
# GOTO (Neuroblastoma) = test system: GOTO (Neuroblastoma)
# Outline: as §1
Compound,combination Emax [1],combination Emax [2],combination Emax [3],combination Emax (EW-3 (Ewing's Sarcoma)),combination Emax [4],combination Emax [5],combination Emax [6],combination Emax (NH-12 (Neuroblastoma)),combination Emax [7],combination Emax [8],combination Emax [9],combination Emax (U-87-MG (Glioblastoma)),combination Emax [10],combination Emax [11],combination Emax [12],combination Emax [13],combination Emax [14],combination Emax [15],combination Emax [16],combination Emax (GOTO (Neuroblastoma))
"Cn1cnc2c(F)c(Nc3ccc(Br)cc3Cl)c(C(=O)NOCCO)cc21 [Selumetinib] + C[C@@H]1COCCN1C2=NC(=NC(=C2)C3(CC3)[S@](=N)(=O)C)C4=C5C=CNC5=NC=C4 [AZD6738] (first compound max 10 µM, 7x7, partner max 10 µM)",0.353,0.382,0.622,0.822,0.854,0.416,0.807,0.91,0.88,0.607,0.311,0.457,0.557,0.569,0.89,0.793,0.632,0.91,0.663,0.946
"CC1(C)CCC(CN2CCN(c3ccc(C(=O)NS(=O)(=O)c4ccc(NCC5CCOCC5)c([N+](=O)[O-])c4)c(Oc4cnc5[nH]ccc5c4)c3)CC2)=C(c2ccc(Cl)cc2)C1 [Venetoclax] + CN(C)CCCOc1ccc(-c2ccc3ncc4c(c3c2)n(C2CCOCC2)c(=O)n4C)cn1 [AZD0156] (first compound max 1 µM, 7x7, partner max 1 µM)",0.227,0.191,0.237,0.799,0.235,0.21,0.125,0.483,0.31,0.229,0.18,0.203,0.25,0.722,0.135,0.207,0.461,1,0.168,0.455
"CN(CCO)CC[C@H](CSc1ccccc1)Nc1ccc(S(=O)(=O)NC(=O)c2ccc(N3CCC([C@@H](O)c4ccccc4-c4ccc(Cl)cc4)CC3)cc2)cc1S(=O)(=O)C(F)(F)F [AZD4320] + C=CCn1c(=O)c2cnc(Nc3ccc(N4CCN(C)CC4)cc3)nc2n1-c1cccc(C(C)(C)O)n1 [AZD1775] (first compound max 1 µM, partner max 1 µM)",0.822,0.571,0.432,0.962,0.964,0.707,0.82,0.98,0.851,0.531,0.524,0.187,0.425,0.639,0.964,1,0.888,1,0.291,0.855
"CC1(C)CCC(CN2CCN(c3ccc(C(=O)NS(=O)(=O)c4ccc(NCC5CCOCC5)c([N+](=O)[O-])c4)c(Oc4cnc5[nH]ccc5c4)c3)CC2)=C(c2ccc(Cl)cc2)C1 [Venetoclax] + CCN(CCO)CCCOc1ccc2c(Nc3cc(CC(=O)Nc4cccc(F)c4)[nH]n3)ncnc2c1 [AZD2811] (first compound max 1 µM, 7x7, partner max 1 µM)",0.307,0.145,0.308,0.779,0.424,0.183,0.204,0.933,0.188,0.318,0.184,0.265,0.343,0.327,0.404,0.712,0.242,1,0.215,0.693
"Cc1c2c(nn1C)CSCc1cc(n(C)n1)CSc1cc(c3ccccc3c1)OCCCc1c(C(=O)O)n(C)c3c-2c(Cl)ccc13 [AZD5991] + C=CCn1c(=O)c2cnc(Nc3ccc(N4CCN(C)CC4)cc3)nc2n1-c1cccc(C(C)(C)O)n1 [AZD1775] (first compound max 1 µM, partner max 1 µM)",0.556,0.357,0.634,0.701,0.922,0.532,0.92,0.918,0.854,0.339,0.415,0.457,0.842,0.853,0.891,0.994,0.727,0.986,0.427,0.834
"Cn1cnc2c(F)c(Nc3ccc(Br)cc3Cl)c(C(=O)NOCCO)cc21 [Selumetinib] + CC(C)n1c(=O)n(C)c2cnc3cc(F)c(-c4ccc(OCCCN5CCCCC5)nc4)cc3c21 [AZD1390] (first compound max 10 µM, 7x7, partner max 0.3 µM)",0.219,0.308,0.259,0.104,0.507,0.22,0.277,0.482,0.527,0.304,0.262,0.215,0.278,0.248,0.917,0.456,0.3,0.158,0.264,0.283
"NC1(C(=O)N[C@@H](CCO)c2ccc(Cl)cc2)CCN(c2ncnc3[nH]ccc23)CC1 [Capivasertib] + CC(C)n1c(=O)n(C)c2cnc3cc(F)c(-c4ccc(OCCCN5CCCCC5)nc4)cc3c21 [AZD1390] (first compound max 10 µM, 7x7, partner max 0.3 µM)",0.456,0.196,0.375,0.258,0.13,0.171,0.38,0.363,0.313,0.384,0.315,0.578,0.462,0.447,0.266,0.508,0.674,0.465,0.195,0.433
"CC1(C)CCC(CN2CCN(c3ccc(C(=O)NS(=O)(=O)c4ccc(NCC5CCOCC5)c([N+](=O)[O-])c4)c(Oc4cnc5[nH]ccc5c4)c3)CC2)=C(c2ccc(Cl)cc2)C1 [Venetoclax] + COc1cc(Nc2ncc3c(n2)-c2ccc(Cl)cc2C(c2c(F)cccc2OC)=NC3)ccc1C(=O)O [Alisertib] (first compound max 1 µM, 7x7, partner max 10 µM)",0.479,0.18,0.516,0.847,0.387,0.234,0.518,0.977,0.352,0.476,0.287,0.423,0.507,0.732,0.462,0.861,0.335,1,0.378,0.719
"CC1(C)CCC(CN2CCN(c3ccc(C(=O)NS(=O)(=O)c4ccc(NCC5CCOCC5)c([N+](=O)[O-])c4)c(Oc4cnc5[nH]ccc5c4)c3)CC2)=C(c2ccc(Cl)cc2)C1 [Venetoclax] + C1CN(CCC1(C(=O)N[C@@H](CCO)C2=CC=C(C=C2)Cl)N)C3=NC=NC4=C3C=CN4 [Capivasertib] (first compound max 1 µM, 7x7, partner max 3 µM)",0.36,0.158,0.405,0.683,0.153,0.117,0.179,0.612,0.167,0.285,0.149,0.403,0.35,0.364,0.2,0.452,0.521,1,0.194,0.365
"Cc1c2c(nn1C)CSCc1cc(n(C)n1)CSc1cc(c3ccccc3c1)OCCCc1c(C(=O)O)n(C)c3c-2c(Cl)ccc13 [AZD5991] + CN(C)CCCOc1ccc(-c2ccc3ncc4c(c3c2)n(C2CCOCC2)c(=O)n4C)cn1 [AZD0156] (first compound max 1 µM, 7x7, partner max 1 µM)",0.47,0.239,0.453,0.662,0.476,0.228,0.395,0.226,0.279,0.344,0.14,0.253,0.745,0.835,0.253,0.37,0.45,0.962,0.394,0.757
"CC(=O)c1c(C)c2cnc(Nc3ccc(N4CCNCC4)cn3)nc2n(C2CCCC2)c1=O [Palbociclib] + Cn1cnc2c(F)c(Nc3ccc(Br)cc3Cl)c(C(=O)NOCCO)cc21 [Selumetinib] (first compound max 10 µM, 7x7, partner max 10 µM)",0.213,0.38,0.684,0.45,0.436,0.305,0.723,0.592,0.665,0.403,0.323,0.326,0.362,0.391,0.935,0.59,0.498,0.614,0.565,0.819
"Cc1c2c(nn1C)CSCc1cc(n(C)n1)CSc1cc(c3ccccc3c1)OCCCc1c(C(=O)O)n(C)c3c-2c(Cl)ccc13 [AZD5991] + C[C@@H]1COCCN1C2=NC(=NC(=C2)C3(CC3)[S@](=N)(=O)C)C4=C5C=CNC5=NC=C4 [AZD6738] (first compound max 1 µM, 7x7, partner max 10 µM)",0.426,0.322,0.543,0.892,0.889,0.344,0.817,0.901,0.94,0.566,0.268,0.494,0.862,0.765,0.767,0.926,0.688,0.981,0.516,0.92
